Measurements: ChEMBL document CHEMBL4130473, “Design, synthesis and biological evaluation of 4,7,12,12a-tetrahydro-5H-thieno[3',2':3,4]pyrido[1,2-b]isoquinolines as novel adenosine 5'-monophosphate-activated protein kinase (AMPK) indirect activators for the treatment of type 2 diabetes” (Eur J Med Chem, 2017)
Calls of active or inactive are those of the source. The rule behind the calls is not given here.

Tests used:
[1] = AUCt in Sprague-Dawley rat at 2 mg/kg, iv; type: ADME, organism-based; conditions: in vivo
[2] = AUC in C57BL/6J mouse at 10 mg/kg, po; type: ADME, organism-based; conditions: in vivo
[3] = Half life in Sprague-Dawley rat at 2 mg/kg, iv; type: ADME, organism-based; conditions: in vivo
[4] = MRT in C57BL/6J mouse at 10 mg/kg, po; type: ADME, organism-based; conditions: in vivo
Mus musculus [5] = assay: Antidiabetic activity in db/db mouse assessed as effect on glucose tolerance capacity by measuring blood glucose AUC level at 120 mg/kg/day dosed via gavage for 4 weeks by OGTT; type: functional, organism-based
[6] = target: Voltage-gated inwardly rectifying potassium channel KCNH2 (Homo sapiens, UniProt Q12809); assay: Inhibition of human ERG by patch clamp assay
[7] = Inhibition of oxygen consumption rate in isolated mitochondria from rat L6 cells assessed as oxygen consumption level at 5 uM (reference value: 100 +/- 1.9%); type: functional; parameters: scale not given: the % may be the effect or the level left
L6 [8] = assay: Activation of AMPKalpha in rat L6 cells assessed as increase in ACC phosphorylation incubated for 1 hrs by Western blot method; type: cell-based
[9] = Half life in Sprague-Dawley rat at 10 mg/kg, po; type: ADME, organism-based; conditions: in vivo
[10] = target: AMPK alpha2/beta1/gamma1 (Homo sapiens) (UniProt P54646+P54619+Q9Y478); assay: Activation of human recombinant AMPKalpha2beta1gamma1 expressed in Escherichia coli at 20 uM incubated for 1 hr using serine/threonine kinase substrate
L6 [11] = assay: Inhibition of oxygen consumption rate in rat L6 cells assessed as oxygen consumption level at 10 uM (reference value: 100 +/- 1.6%); type: functional; parameters: scale not given: the % may be the effect or the level left
[12] = AUC in Sprague-Dawley rat at 10 mg/kg, po; type: ADME, organism-based; conditions: in vivo
[13] = Tmax in Sprague-Dawley rat at 10 mg/kg, po; type: ADME, organism-based; conditions: in vivo
[14] = MRT in Sprague-Dawley rat at 10 mg/kg, po; type: ADME, organism-based; conditions: in vivo
[15] = target: AMPK alpha1/beta2/gamma1 (Homo sapiens) (UniProt O43741+P54619+Q13131); assay: Activation of human recombinant AMPKalpha1beta2gamma1 expressed in Escherichia coli at 20 uM incubated for 1 hr using serine/threonine kinase substrate
[16] = Oral bioavailability in Sprague-Dawley rat at 10 mg/kg; type: ADME, organism-based; conditions: in vivo
[17] = AUCt in Sprague-Dawley rat at 10 mg/kg, po; type: ADME, organism-based; conditions: in vivo
L6 [18] = assay: Inhibition of oxygen consumption rate in rat L6 cells; type: functional, cell-based
[19] = Cmax in Sprague-Dawley rat at 2 mg/kg, iv; type: ADME, organism-based; parameters: dose 2 mg/kg, route intravenous; conditions: in vivo
L6 [20] = assay: Activation of AMPKalpha in rat L6 cells assessed as increase in AMPKalpha Thr172 phosphorylation incubated for 1 hrs by Western blot method; type: cell-based
Hepatocyte [21] = assay: Potency index, ratio of berberine potency to compound potency for inhibition of glucose production in Sprague-Dawley rat primary hepatocytes grown under gluconeogenic medium aincubated for 6 hrs by glucose assay reagent based glucose oxidase method; type: functional
Hepatocyte [22] = assay: Inhibition of glucose production in Sprague-Dawley rat primary hepatocytes grown under gluconeogenic medium assessed as glucose production level at 10 uM incubated for 6 hrs by glucose assay reagent based glucose oxidase method (reference value: 100%); type: functional; parameters: scale not given: the % may be the effect or the level left
[23] = AUCt in C57BL/6J mouse at 10 mg/kg, po; type: ADME, organism-based; conditions: in vivo
[24] = target: AMP-activated protein kinase (AMPK) alpha-1/beta-1/gamma-1 (Homo sapiens) (UniProt P54619+Q9Y478+Q13131); assay: Activation of human recombinant AMPKalpha1beta1gamma1 expressed in Escherichia coli at 20 uM incubated for 1 hr using serine/threonine kinase substrate
[25] = target: AMPK alpha1/beta1/gamma2 (Homo sapiens) (UniProt Q9UGJ0+Q9Y478+Q13131); assay: Activation of human recombinant AMPKalpha1beta1gamma2 expressed in Escherichia coli at 20 uM incubated for 1 hr using serine/threonine kinase substrate
L6 [26] = assay: Inhibition of oxygen consumption rate in isolated mitochondria from rat L6 cells; type: functional
Hepatocyte [27] = assay: Inhibition of glucose production in Sprague-Dawley rat primary hepatocytes grown under gluconeogenic medium assessed as glucose production level at 20 uM incubated for 6 hrs by glucose assay reagent based glucose oxidase method (reference value: 100%); type: functional; parameters: scale not given: the % may be the effect or the level left
[28] = target: AMP-activated protein kinase alpha-2/beta-1/gamma-3 (Homo sapiens) (UniProt P54646+Q9Y478+Q9UGI9); assay: Activation of human recombinant AMPKalpha2beta1gamma3 expressed in Escherichia coli at 20 uM incubated for 1 hr using serine/threonine kinase substrate
[29] = Cmax in C57BL/6J mouse at 10 mg/kg, po; type: ADME, organism-based; parameters: dose 10 mg/kg, route oral; conditions: in vivo
[30] = Cmax in Sprague-Dawley rat at 10 mg/kg, po; type: ADME, organism-based; parameters: dose 10 mg/kg, route oral; conditions: in vivo
L6 [31] = assay: Stimulation of glucose consumption in rat L6 cells at 20 uM incubated for 12 hrs by glucose assay reagent based glucose oxidase method relative to untreated control; type: functional
[32] = Inhibition of oxygen consumption rate in isolated mitochondria from rat L6 cells assessed as oxygen consumption level at 2.5 uM (reference value: 100 +/- 1.9%); type: functional; parameters: scale not given: the % may be the effect or the level left
L6 [33] = assay: Inhibition of mitochondrial membranes potential in rat L6 cells assessed as mitochondrial membranes potential level at 20 uM incubated for 40 mins by JC1 dye staining based fluorescence assay (reference value: 100 +/- 2.8%); type: functional; parameters: scale not given: the % may be the effect or the level left
Mus musculus [34] = assay: Antidiabetic activity in db/db mouse assessed as reduction in fasting blood glucose level at 120 mg/kg/day dosed via gavage for 4 weeks measured during 2 to 4 weeks; type: functional, organism-based
[35] = Tmax in C57BL/6J mouse at 10 mg/kg, po; type: ADME, organism-based; conditions: in vivo
[36] = AUC in Sprague-Dawley rat at 2 mg/kg, iv; type: ADME, organism-based; conditions: in vivo
Rattus norvegicus = assay: Clearance in Sprague-Dawley rat at 2 mg/kg, iv; type: ADME, organism-based; conditions: in vivo
[37] = target: AMP-activated protein kinase alpha-1/beta-2/gamma-3 (Homo sapiens) (UniProt O43741+Q13131+Q9UGI9); assay: Activation of human recombinant AMPKalpha1beta2gamma3 expressed in Escherichia coli at 20 uM incubated for 1 hr using serine/threonine kinase substrate
[38] = Inhibition of oxygen consumption rate in isolated mitochondria from rat L6 cells assessed as oxygen consumption level at 10 uM (reference value: 100 +/- 1.9%); type: functional; parameters: scale not given: the % may be the effect or the level left
[39] = Tmax in Sprague-Dawley rat at 2 mg/kg, iv; type: ADME, organism-based; conditions: in vivo
[40] = target: AMP-activated protein kinase alpha-2/beta-2/gamma-2 (Homo sapiens) (UniProt P54646+O43741+Q9UGJ0); assay: Activation of human recombinant AMPKalpha2beta2gamma2 expressed in Escherichia coli at 20 uM incubated for 1 hr using serine/threonine kinase substrate
L6 [41] = assay: Inhibition of oxygen consumption rate in rat L6 cells assessed as oxygen consumption level at 20 uM (reference value: 100 +/- 1.6%); type: functional; parameters: scale not given: the % may be the effect or the level left
[42] = Inhibition of oxygen consumption rate in isolated mitochondria from rat L6 cells assessed as oxygen consumption level at 1.2 uM (reference value: 100 +/- 1.9%); type: functional; parameters: scale not given: the % may be the effect or the level left
[43] = target: AMPK alpha2/beta2/gamma1 (Homo sapiens) (UniProt P54646+O43741+P54619); assay: Activation of human recombinant AMPKalpha2beta2gamma1 expressed in Escherichia coli at 20 uM incubated for 1 hr using serine/threonine kinase substrate
Hepatocyte [44] = assay: Inhibition of glucose production in Sprague-Dawley rat primary hepatocytes grown under gluconeogenic medium incubated for 6 hrs by glucose assay reagent based glucose oxidase method (reference value: 100%); type: functional, cell-based
Hepatocyte [45] = assay: Inhibition of glucose production in Sprague-Dawley rat primary hepatocytes grown under gluconeogenic medium assessed as glucose production level at 5 uM incubated for 6 hrs by glucose assay reagent based glucose oxidase method (reference value: 100%); type: functional; parameters: scale not given: the % may be the effect or the level left
[46] = MRT in Sprague-Dawley rat at 2 mg/kg, iv; type: ADME, organism-based; conditions: in vivo

AMP-activated protein kinase alpha-2/beta-2/gamma-2 (Homo sapiens), sequence (O43741 whole entry, looked up): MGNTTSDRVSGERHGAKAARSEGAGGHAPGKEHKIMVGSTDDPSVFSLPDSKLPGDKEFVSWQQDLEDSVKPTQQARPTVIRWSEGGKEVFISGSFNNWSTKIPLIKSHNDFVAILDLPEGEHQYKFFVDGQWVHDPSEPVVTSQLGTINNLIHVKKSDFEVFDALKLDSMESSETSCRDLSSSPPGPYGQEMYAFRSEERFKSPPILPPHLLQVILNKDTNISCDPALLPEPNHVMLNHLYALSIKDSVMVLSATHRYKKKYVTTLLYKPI
AMP-activated protein kinase alpha-2/beta-2/gamma-2 (Homo sapiens), sequence (P54646 whole entry, looked up): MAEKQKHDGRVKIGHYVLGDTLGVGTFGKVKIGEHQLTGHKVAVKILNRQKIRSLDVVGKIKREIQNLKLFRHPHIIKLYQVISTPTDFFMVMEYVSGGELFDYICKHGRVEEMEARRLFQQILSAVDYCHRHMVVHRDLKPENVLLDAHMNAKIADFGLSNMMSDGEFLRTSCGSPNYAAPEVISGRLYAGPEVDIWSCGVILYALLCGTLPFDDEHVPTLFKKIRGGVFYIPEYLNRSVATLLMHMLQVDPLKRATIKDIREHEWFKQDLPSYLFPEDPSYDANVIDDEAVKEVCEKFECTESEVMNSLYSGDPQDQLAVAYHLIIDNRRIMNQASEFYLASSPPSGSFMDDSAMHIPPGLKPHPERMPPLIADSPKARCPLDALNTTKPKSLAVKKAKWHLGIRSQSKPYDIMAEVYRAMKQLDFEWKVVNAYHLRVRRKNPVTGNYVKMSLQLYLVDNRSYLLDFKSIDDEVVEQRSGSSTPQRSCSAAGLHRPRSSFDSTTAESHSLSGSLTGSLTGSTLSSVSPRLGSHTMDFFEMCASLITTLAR
AMP-activated protein kinase alpha-2/beta-2/gamma-2 (Homo sapiens), sequence (Q9UGJ0 whole entry, looked up): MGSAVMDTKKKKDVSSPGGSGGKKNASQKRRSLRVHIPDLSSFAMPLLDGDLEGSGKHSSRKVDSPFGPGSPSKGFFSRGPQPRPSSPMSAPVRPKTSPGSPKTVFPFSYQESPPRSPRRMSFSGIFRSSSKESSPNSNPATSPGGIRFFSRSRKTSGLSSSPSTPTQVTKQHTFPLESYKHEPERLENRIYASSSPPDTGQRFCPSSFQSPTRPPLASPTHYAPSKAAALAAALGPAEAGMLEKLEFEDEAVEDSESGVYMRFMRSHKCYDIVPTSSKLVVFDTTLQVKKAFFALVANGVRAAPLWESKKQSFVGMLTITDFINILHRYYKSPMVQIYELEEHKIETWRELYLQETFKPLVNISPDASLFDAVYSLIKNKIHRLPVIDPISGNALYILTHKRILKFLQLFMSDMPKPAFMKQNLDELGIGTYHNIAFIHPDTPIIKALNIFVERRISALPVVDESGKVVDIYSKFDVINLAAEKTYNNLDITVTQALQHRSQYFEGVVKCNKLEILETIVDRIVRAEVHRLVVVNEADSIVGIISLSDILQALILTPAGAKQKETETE
AMPK alpha1/beta2/gamma1 (Homo sapiens), sequence (O43741 whole entry, looked up): as the sequence (O43741 whole entry, looked up) above
AMPK alpha1/beta2/gamma1 (Homo sapiens), sequence (P54619 whole entry, looked up): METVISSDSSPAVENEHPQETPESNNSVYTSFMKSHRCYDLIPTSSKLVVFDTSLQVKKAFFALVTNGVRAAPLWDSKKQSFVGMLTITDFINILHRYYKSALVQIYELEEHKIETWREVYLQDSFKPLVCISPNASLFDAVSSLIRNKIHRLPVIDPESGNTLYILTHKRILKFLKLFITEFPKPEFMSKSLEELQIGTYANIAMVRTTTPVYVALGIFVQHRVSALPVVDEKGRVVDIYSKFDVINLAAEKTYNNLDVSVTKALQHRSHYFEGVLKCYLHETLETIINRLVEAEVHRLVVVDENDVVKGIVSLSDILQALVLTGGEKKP
AMPK alpha1/beta2/gamma1 (Homo sapiens), sequence (Q13131 whole entry, looked up): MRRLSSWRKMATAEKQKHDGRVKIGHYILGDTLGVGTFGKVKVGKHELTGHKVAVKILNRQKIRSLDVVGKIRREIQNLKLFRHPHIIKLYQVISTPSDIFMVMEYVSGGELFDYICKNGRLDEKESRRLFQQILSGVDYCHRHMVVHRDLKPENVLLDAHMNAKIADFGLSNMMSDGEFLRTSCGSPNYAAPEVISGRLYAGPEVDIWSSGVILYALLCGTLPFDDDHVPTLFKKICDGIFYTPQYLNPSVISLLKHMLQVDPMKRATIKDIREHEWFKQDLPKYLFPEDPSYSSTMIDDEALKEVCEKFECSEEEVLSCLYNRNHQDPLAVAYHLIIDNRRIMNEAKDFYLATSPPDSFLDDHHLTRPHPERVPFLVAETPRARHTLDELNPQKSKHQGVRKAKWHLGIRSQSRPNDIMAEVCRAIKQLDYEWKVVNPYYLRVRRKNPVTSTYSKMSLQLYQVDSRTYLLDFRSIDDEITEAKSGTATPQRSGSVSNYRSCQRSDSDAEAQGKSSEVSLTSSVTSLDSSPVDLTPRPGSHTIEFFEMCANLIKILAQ
AMPK alpha2/beta2/gamma1 (Homo sapiens), sequence (O43741 whole entry, looked up): as the sequence (O43741 whole entry, looked up) above
AMPK alpha2/beta2/gamma1 (Homo sapiens), sequence (P54619 whole entry, looked up): as the sequence (P54619 whole entry, looked up) above
AMPK alpha2/beta2/gamma1 (Homo sapiens), sequence (P54646 whole entry, looked up): as the sequence (P54646 whole entry, looked up) above
AMPK alpha2/beta1/gamma1 (Homo sapiens), sequence (P54619 whole entry partner): as the sequence (P54619 whole entry, looked up) above
AMPK alpha2/beta1/gamma1 (Homo sapiens), sequence (P54646 whole entry): as the sequence (P54646 whole entry, looked up) above
AMPK alpha2/beta1/gamma1 (Homo sapiens), sequence (Q9Y478 2-270 partner limits assumed): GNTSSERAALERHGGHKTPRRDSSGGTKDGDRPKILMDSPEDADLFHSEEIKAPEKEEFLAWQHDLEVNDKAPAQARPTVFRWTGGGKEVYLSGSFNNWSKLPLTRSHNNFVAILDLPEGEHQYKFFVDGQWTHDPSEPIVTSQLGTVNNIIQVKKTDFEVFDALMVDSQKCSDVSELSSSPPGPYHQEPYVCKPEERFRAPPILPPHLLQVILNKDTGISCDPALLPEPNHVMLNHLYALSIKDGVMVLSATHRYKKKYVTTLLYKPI

CCc1cc2c(s1)CCN1Cc3c(OC)ccc(OC)c3CC21 (configuration not stated)
AUC(0-t) [1]: 364 ng·h/mL
AUC [2]: 244 ng·h/mL
half-life [3]: 10.8 h
MRT [4]: 5.1 h
Activity (Mus musculus [5]): inactive
IC50 [6]: 10.5 µM
Activity [7]: 54%
Activity (L6 [8]): Dose-dependent effect
half-life [9]: 7.2 h
Activity [10]: inactive
Activity (L6 [11]): 54%
AUC [12]: 889 ng·h/mL
Tmax [13]: 0.5 h
MRT [14]: 5.5 h
Activity [15]: inactive
bioavailability [16]: 45.4%
AUC(0-t) [17]: 825 ng·h/mL
inhibition (L6 [18]): Dose-dependent effect
Cmax [19]: 114 ng/mL
Activity (L6 [20]): Dose-dependent effect
Ratio (Hepatocyte [21]): 1.7
Activity (Hepatocyte [22]): 16.3%
AUC(0-t) [23]: 188 ng·h/mL
Activity [24]: inactive
Activity [25]: inactive
inhibition (L6 [26]): Dose-dependent effect
Activity (Hepatocyte [27]): 14.9%
Activity [28]: inactive
Cmax [29]: 113 ng/mL
Cmax [30]: 162 ng/mL
Activity (L6 [31]): 228.3%
Activity [32]: 66.3%
Activity (L6 [33]): 59.5%
Activity (Mus musculus [34]): Active
Tmax [35]: 0.25 h
AUC [36]: 432 ng·h/mL
clearance (Rattus norvegicus): 76.7 mL/min/kg
Activity [37]: inactive
Activity [38]: 41.7%
Tmax [39]: 0.25 h
Activity [40]: inactive
Activity (L6 [41]): 47.5%
Activity [42]: 76.2%
Activity [43]: inactive
inhibition (Hepatocyte [44]): Dose-dependent effect
Activity (Hepatocyte [45]): 25.7%
MRT [46]: 5.8 h
